Experimental findings from ChEMBL document CHEMBL1201862, “PubChem BioAssay data set” (2004) are described below.

Among the test systems are HL-60; HCT-116; RXF 393; T47D; SN12C; ACHN; PC-3; DU-145; LOX IMVI; NCI-H23; MOLT-4; K562; SF-268; COLO 205; U-251; HOP-92; MDA-MB-231; SW-620; OVCAR-4; NCI-H226.
What all share (test): inhibition of tumour cell growth, NCI panel, 48 h

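A five-concentration, 48-hour dose response in 96-well plates underlies each endpoint, interpolated linearly between surrounding concentrations. At the GI50, growth is halved.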 Active and inactive are the calls of the source. Cut-off read from the data, not from the text of the source: active = GI50 up to about 1.1 µM and inactive = higher.

Regarding `CCOC(=O)Nc1nc(-c2ccccc2)c(C)s1`, the GI50 with HL-60 was 11.1 µM (inactive); in the assay with HCT-116 it was 88.7 µM (inactive); in the assay with RXF 393, > 100 µM (inactive); in the assay with T47D, 47.3 µM (inactive); with SN12C, > 100 µM (inactive); in the assay on ACHN it was > 100 µM (inactive). In addition, the GI50 was > 100 µM (inactive) in the assay with PC-3; 52.6 µM (inactive) in the assay on DU-145; > 100 µM (inactive) in the assay on LOX IMVI; 81.1 µM (inactive) in the assay with NCI-H23; 7.35 µM (inactive) in the assay with MOLT-4; 18.3 µM (inactive) in the assay with K562. The GI50 is > 100 µM (inactive) with SF-268; 96.6 µM (inactive) in the assay on COLO 205; > 100 µM (inactive) with U-251; 11.7 µM (inactive) with HOP-92; > 100 µM (inactive) in the assay on MDA-MB-231; > 100 µM (inactive) in the assay on SW-620. In addition, the GI50 is 81.5 µM (inactive) in the assay on OVCAR-4 and > 100 µM (inactive) in the assay with NCI-H226.
Turning to `CCCCOP(=O)(OCCCC)C(NS(=O)(=O)c1ccccc1)(C(=O)OCC)C(F)(F)F` (centres undefined), the GI50 in the assay on HL-60 is 19.3 µM (inactive); in the assay on HCT-116 it was 27.4 µM (inactive); in the assay on RXF 393, 26.7 µM (inactive); in the assay with T47D it was > 100 µM (inactive); with SN12C, 29.1 µM (inactive); with ACHN, 27.9 µM (inactive). Also, the GI50 in the assay on PC-3 is 30.1 µM (inactive); in the assay on DU-145, 45.3 µM (inactive); in the assay on LOX IMVI, 31.4 µM (inactive); in the assay on NCI-H23, 33.6 µM (inactive); with MOLT-4, 20.2 µM (inactive); with K562, 20.5 µM (inactive). Further, the GI50 with SF-268 is 43 µM (inactive); in the assay on COLO 205, 19.5 µM (inactive); with U-251 it was 34.8 µM (inactive); in the assay on HOP-92, 23.8 µM (inactive); with MDA-MB-231, 15.3 µM (inactive); with OVCAR-4, 27.7 µM (inactive). The GI50 in the assay on NCI-H226 is 27.6 µM (inactive).
Turning to `N#C/C(C(=O)NCc1ccccc1)=C(/N)N1CCCC1`, the GI50 in the assay with HL-60, in the assay with HCT-116, in the assay on RXF 393, in the assay on T47D, in the assay on SN12C and with ACHN was > 100 µM (inactive) each time. Further, the GI50 in the assay on PC-3, with DU-145, with LOX IMVI, in the assay on NCI-H23, with MOLT-4 and with K562 was > 100 µM (inactive) throughout. The GI50 in the assay with SF-268 is > 100 µM (inactive); in the assay with COLO 205, > 100 µM (inactive); in the assay on U-251, > 100 µM (inactive); in the assay on HOP-92, 97.7 µM (inactive); with MDA-MB-231, > 100 µM (inactive); in the assay on SW-620 it was > 100 µM (inactive). Besides, the GI50 with OVCAR-4 and in the assay with NCI-H226 was > 100 µM (inactive) in each case.
Turning to `NCC(=O)C(O)C(O)C(O)CO` (centres undefined), the GI50 in the assay with HL-60, in the assay with HCT-116, in the assay with RXF 393, with T47D, with SN12C and in the assay on ACHN was > 100 µM (inactive) in each case. In addition, the GI50 in the assay with PC-3, in the assay with DU-145, with LOX IMVI, in the assay with NCI-H23, in the assay with MOLT-4 and in the assay on K562 was > 100 µM (inactive) throughout. In addition, the GI50 in the assay with SF-268, with COLO 205, with U-251, in the assay on HOP-92, in the assay with MDA-MB-231 and in the assay with SW-620 was > 100 µM (inactive) each time. The GI50 in the assay with OVCAR-4 and with NCI-H226 was > 100 µM (inactive) each time.
Consider `CC(=O)NC1C(OCc2ccccc2)OC(CO)C(O)C1OCC(=O)N1CCCC1C(=O)NC(CCC(=O)NCCCCCNc1c2ccccc2nc2cccc([N+](=O)[O-])c12)C(N)=O` (centres undefined), for which the GI50 was 0.0221 µM (active) in the assay on HL-60; 0.00433 µM (active) with HCT-116; 0.00938 µM (active) in the assay with RXF 393; 0.578 µM (active) in the assay on T47D; 0.011 µM (active) with SN12C; 0.00865 µM (active) in the assay with ACHN. Also, the GI50 in the assay with PC-3 is 0.00321 µM (active); with DU-145, 0.0192 µM (active); with LOX IMVI, 0.166 µM (active); in the assay on NCI-H23, 0.0336 µM (active); in the assay on MOLT-4, 0.0561 µM (active); in the assay with K562 it was 0.00366 µM (active). For the same molecule, the GI50 in the assay on SF-268 is 0.0201 µM (active); with COLO 205 it was 0.0144 µM (active); in the assay on U-251, 0.0108 µM (active); in the assay with HOP-92, 0.0252 µM (active); in the assay with MDA-MB-231 it was 0.0175 µM (active); in the assay with SW-620, 0.00399 µM (active). For the same molecule, the GI50 is 0.0982 µM (active) in the assay on OVCAR-4 and 0.114 µM (active) in the assay with NCI-H226.
For `COc1ccc(/C(Cl)=C(\C=O)c2cc(OC)c(OC)c(OC)c2)cc1OC`, the GI50 in the assay with HL-60 was 5.78 µM (inactive); in the assay with HCT-116, 36.6 µM (inactive); with RXF 393, > 100 µM (inactive); with T47D, 20.4 µM (inactive); with SN12C it was 23.2 µM (inactive); in the assay with ACHN it was 26.3 µM (inactive). Further, the GI50 is 55.1 µM (inactive) in the assay on PC-3; 44.7 µM (inactive) with DU-145; 19.7 µM (inactive) in the assay on LOX IMVI; 12.3 µM (inactive) with NCI-H23; 22.4 µM (inactive) in the assay with MOLT-4; 25.7 µM (inactive) with K562. Further, the GI50 in the assay on SF-268 is 23.8 µM (inactive); in the assay with COLO 205, 27.5 µM (inactive); in the assay on U-251, 23 µM (inactive); in the assay with HOP-92, 49 µM (inactive); in the assay with MDA-MB-231, 68.5 µM (inactive); with SW-620 it was > 61.2 µM (inactive). The values for the GI50 in the assay on OVCAR-4 and with NCI-H226 were 24.3 µM (inactive) and 19.8 µM (inactive), respectively.
On to `Cc1cc(NCCCCCCCCCC[n+]2c(C)cc(N)c3ccccc32)c2ccccc2n1`, for which the GI50 in the assay with HL-60 was 0.0721 µM (active); with HCT-116 it was 0.209 µM (active); with RXF 393, 4.1 µM (inactive); with T47D, 0.333 µM (active); with SN12C, 0.733 µM (active); with ACHN, 2.31 µM (inactive). The GI50 with PC-3 is 0.188 µM (active); in the assay with DU-145 it was 2.49 µM (inactive); in the assay on LOX IMVI it was 0.546 µM (active); in the assay with NCI-H23 it was 0.0708 µM (active); in the assay with MOLT-4, 0.322 µM (active); in the assay with K562, 0.0409 µM (active). Also, the GI50 is 1.43 µM (inactive) with SF-268; 0.346 µM (active) in the assay on COLO 205; 0.069 µM (active) with U-251; 1.83 µM (inactive) with HOP-92; 0.652 µM (active) with MDA-MB-231; 1.84 µM (inactive) in the assay with SW-620. In addition, the GI50 with OVCAR-4 was 1.42 µM (inactive); in the assay on NCI-H226 it was 2.67 µM (inactive).
For the molecule `Cc1c(C)c(S(=O)(=O)N(CCCCCN)OCCCN)c(C)c2c1OC(C)(C)CC2`, the GI50 is 2.19 µM (inactive) with HL-60; 5.98 µM (inactive) in the assay on HCT-116; 11.6 µM (inactive) in the assay on RXF 393; 16.6 µM (inactive) in the assay with T47D; 16.6 µM (inactive) with SN12C; 17.2 µM (inactive) in the assay with ACHN. Moreover, the GI50 was 4.06 µM (inactive) in the assay with PC-3; 25.1 µM (inactive) in the assay with DU-145; 5.4 µM (inactive) in the assay on LOX IMVI; 14.6 µM (inactive) in the assay on NCI-H23; 3.76 µM (inactive) with MOLT-4; 5.07 µM (inactive) in the assay on K562. For the same molecule, the GI50 is 10 µM (inactive) in the assay with SF-268; 12.2 µM (inactive) in the assay on COLO 205; 5.64 µM (inactive) with U-251; 18.3 µM (inactive) with HOP-92; 5.89 µM (inactive) with MDA-MB-231; 7.8 µM (inactive) in the assay on SW-620. Also, the GI50 was 3.96 µM (inactive) in the assay on OVCAR-4 and 8.89 µM (inactive) with NCI-H226.
In the case of `COC(=O)C(Cc1c[nH]c2ccccc12)NC1=Nc2ccncc2S(=O)(=O)N1c1cccc(OC(C)C)c1` (centres undefined), the GI50 in the assay on HL-60 was 22.4 µM (inactive); with HCT-116 it was 35.4 µM (inactive); in the assay with RXF 393 it was > 100 µM (inactive); in the assay on T47D, 36.1 µM (inactive); in the assay on SN12C it was 48.1 µM (inactive); in the assay on ACHN, 41.1 µM (inactive). Moreover, the GI50 in the assay with PC-3 is 39.9 µM (inactive); in the assay on DU-145, 32.8 µM (inactive); in the assay with LOX IMVI, 26.4 µM (inactive); in the assay with NCI-H23 it was 20.1 µM (inactive); in the assay with MOLT-4 it was 8.91 µM (inactive); in the assay with K562 it was 41.8 µM (inactive). In addition, the GI50 in the assay on SF-268 is 41.9 µM (inactive); with COLO 205 it was 30.3 µM (inactive); in the assay with U-251, 47.6 µM (inactive); with HOP-92, 3.94 µM (inactive); in the assay with MDA-MB-231 it was 49.4 µM (inactive); with SW-620, 92.5 µM (inactive). For the same molecule, the figures for the GI50 in the assay with OVCAR-4 and in the assay on NCI-H226 were 37.2 µM (inactive) and > 100 µM (inactive), respectively.
On to `CO/C(=N\N=C\c1ccc(Cl)cc1Cl)c1ccncc1`, for which the GI50 was > 10 µM (inactive) in the assay on HL-60; > 10 µM (inactive) in the assay with HCT-116; > 10 µM (inactive) in the assay with RXF 393; 7.69 µM (inactive) in the assay on T47D; > 10 µM (inactive) with SN12C; > 10 µM (inactive) in the assay with ACHN. For the same molecule, the GI50 in the assay on PC-3, with DU-145, with LOX IMVI, in the assay on NCI-H23, in the assay with MOLT-4 and in the assay on K562 was > 10 µM (inactive) throughout. The GI50 with SF-268, with COLO 205, with U-251, in the assay on HOP-92, with MDA-MB-231 and in the assay on SW-620 was > 10 µM (inactive) in each case. For the same molecule, the GI50 in the assay with OVCAR-4 and with NCI-H226 was > 10 µM (inactive) each time.
